Experimental data: patent publication US4360663A, “Steroid hormone-antitumor derivatives” (Kureha Kagaku Kogyo Kabushiki Kaisha, priority 1978, dated 1982)

Legend:
[1] = test system: estrogen sensitive cells (uterus of rabbit); assay: Binding function to estrogen sensitive cells (3H-estradiol replacement, uterus of rabbit); settings: 100 nM sample; smaller value = higher binding; 54-56% at 0 nM
Method: Binding function of the active ingredients to estrogen sensitive cells.
The binding function of the active ingredient to tumor cells was tested by the method described in Biochemical Experiment text Hormone (I) (Nippon Seikagaku) (Tokyo Kagakudojin page 217-252, April 25, 1977).
Estradiol labelled by tritium (^3 H) was incubated with uterus of rabbit to bind it and then, the sample was added to the system to measure the amount of free ^3 H-estradiol which was replaced by the added estradiol. The results are shown as the binding ^3 H-estradiol(%) in the cases adding […] of the sample.

[2] = test system: estrogen sensitive cells (uterus of rabbit); assay: as above; settings: 10 nM sample; smaller value = higher binding; 54-56% at 0 nM
[3] = Acute toxicity (LD50), ICR-JCL female mice, Litchfield-Wilcoxon graph method; settings: mouse, in vivo, one dose, in olive oil, after 7 days
Method: In the measurement of LD50, eight ICR-JCL female mice (5 week age) were used as one group to breed in a transparent polycage, and each drug was dissolved in olive oil and administrated by routes of intraperitoneal injection (i.p.), oral administration (p.o.) and subcutaneous injection (s.c.), to the mice at one dose and then, their value of LD50 by Litchfield-Wilcoxon graph method is obtained after 7 days.
(§1) The tests (1), (2), (3) for various active ingredients were carried out.

[4] = test system: human breast cancer cells having steroid hormone receptor; assay: Antitumor test (in vivo), human breast cancer cells implanted in BALB/C-nu/nu mice; settings: tumors excised day 25
Method: Pieces of human breast cancer cells having steroid hormone receptor was subcutaneously implanted under the arm of mice (BALB/C-nu/nu) (5 week age) to form solid tumors. After the solid tumors were established, each dispersion or solution of the active ingredient in olive oil was administered by oral dose or intraperitoneal injection each other day for 10 times or every days for 20 times. Twenty five days from the initial administration, the tumors were excised. Efficiency of inhibition of tumor proliferation was measured from (A) each average weight of excised tumors for 10 mice (the active ingredient was administrated) and (B) each average weight of excised tumors for 10 control mice. [formula]
as §1

Compound	Binding 3H-estradiol [1]	Binding 3H-estradiol [2]	LD50 at 168 h ([3]; ip)	LD50 at 168 h ([3]; po)	Inhibitory effect of tumor, efficiency ([4]; p.o., 10 mg/kg)	further results
3-hydroxy-1,3,5(10)-estratriene-17β-[methyl-2-{N'-(2-chloroethyl)-N'-nitrosoureido}-2-deoxy-α-D-glucuronoyloxy]acetate [Test No. 2 (Table 17)]	17%	37%	–	–	–	–
CN(N=O)C(=O)N[C@H]1C(O)O[C@H](C(=O)OCC(=O)O[C@H]2CC[C@H]3[C@@H]4CCc5cc(O)ccc5[C@H]4CC[C@]23C)[C@@H](O)[C@@H]1O (stereo partly drawn) [Test No. 6 (Table 17), 3-hydroxy-1,3,5(10)-estratriene-17β-[2-(N'-methyl-N'-nitrosoureido)-2-deoxy-D-glucuronoyloxy]acetate]	16%	28%	> 660 mg/kg	> 1000 mg/kg	77%	Inhibitory effect of tumor, efficiency ([4]; i.p., 5 mg/kg): 92%; Inhibitory effect of tumor, efficiency ([4]; i.p., 10 mg/kg): 97%; Inhibitory effect of tumor, efficiency ([4]; p.o., 40 mg/kg): 84%
C[C@]12CC[C@@H]3c4ccc(O)cc4CC[C@H]3[C@@H]1CC[C@@H]2OC(=O)Cn1cc(F)c(=O)[nH]c1=O [Test No. 7 (Table 17), 3-hydroxy-1,3,5(10)-estratriene-17β-[5-fluoro-2,4-dioxo-pyrimidin-1-yl]acetate]	25%	36%	> 605 mg/kg	> 2000 mg/kg	–	Inhibitory effect of tumor, efficiency ([4]; i.p., 10 mg/kg): 90%; Inhibitory effect of tumor, efficiency ([4]; i.p., 20 mg/kg): 100%
CN(Cc1cnc2nc(N)nc(N)c2n1)c1ccc(C(=O)N[C@@H](CCC(=O)OCC(=O)O[C@H]2CC[C@H]3[C@@H]4CCc5cc(O)ccc5[C@H]4CC[C@]23C)C(=O)OCC(=O)O[C@H]2CC[C@H]3[C@@H]4CCc5cc(O)ccc5[C@H]4CC[C@]23C)cc1 [Test No. 9 (Table 17), bis 3-hydroxy-1,3,5(10)-estratriene-17β-oxycarbonylmethyl-4-amino-N^10-methylpteroylglutamate]	19%	35%	> 235 mg/kg	> 3000 mg/kg	80%	Inhibitory effect of tumor, efficiency ([4]; i.p., 5 mg/kg): 98%; Inhibitory effect of tumor, efficiency ([4]; p.o., 50 mg/kg): 93%
C[C@]12CC[C@@H]3c4ccc(O)cc4CC[C@H]3[C@@H]1CC[C@@H]2O [compound 1]	16%	36%	–	–	–	–
CO[C@H]1O[C@H](C(=O)OCC(=O)O[C@H]2CC[C@H]3[C@@H]4CCc5cc(O)ccc5[C@H]4CC[C@]23C)[C@@H](O)[C@H](O)[C@H]1NC(=O)N(CCCl)N=O [compound 2]	30%	45%	> 180 mg/kg	> 1000 mg/kg	79%	Inhibitory effect of tumor, efficiency ([4]; i.p., 1 mg/kg): 90%; Inhibitory effect of tumor, efficiency ([4]; i.p., 3 mg/kg): 92%; Inhibitory effect of tumor, efficiency ([4]; p.o., 40 mg/kg): 82%
CO[C@H]1O[C@H](CO)[C@@H](O)[C@H](O)[C@H]1NC(=O)N(CCCl)N=O [compound 3]	55%	55%	–	–	–	–
COc1cccc2c1C(=O)c1c(O)c3c(c(O)c1C2=O)C[C@@](O)(C(C)=O)C[C@@H]3O[C@H]1C[C@H](N)[C@H](O)[C@H](C)O1 [compound 4]	56%	56%	–	–	–	–
O=c1[nH]cc(F)c(=O)[nH]1 [compound 8]	53%	55%	–	–	–	–
N[C@@H](Cc1ccc(N(CCCl)CCCl)cc1)C(=O)O [compound 21]	–	–	6.2 mg/kg	15.9 mg/kg	–	Inhibitory effect of tumor, efficiency ([4]; i.p., 0.1 mg/kg): 51%; Inhibitory effect of tumor, efficiency ([4]; i.p., 0.5 mg/kg): 57%; Inhibitory effect of tumor, efficiency ([4]; p.o., 1 mg/kg): 61%; Inhibitory effect of tumor, efficiency ([4]; p.o., 3 mg/kg): 72%
